One assay has as its target T1, MMP-12 catalytic domain (Homo sapiens, UniProt P39900).
T1 construct: catalytic domain(^100Phe˜^263Gly); His-tag; enterokinase digestion-site; made in house; host or cells: Escherichia coli
The assay can be described thus: Assay for inhibitory activities on MMPs (fluorogenic peptide substrate): MMP-12. In kind it is biochemical. The settings on record: substrate MOCAc-Pro-Leu-Gly-Leu-A2Pr(DNP)-Ala-Arg-NH2. The protocol:
In regard to MMP-12, catalytic domain(^100Phe˜^263Gly) was amplified with RT-PCR from Human Placenta Total RNA. This was cloned in Escherichia coli expression vector pTrc99AHE inserted with His-tag sequence and enterokinase digestion-site, induced and expressed by IPTG (Isopropyl-β-D-thiogalactopyranoside) and expressed in a insoluble fraction. Isolation of MMP-12 from a insoluble fraction was carried out by dissolving in modifier (6M urea) by a usual method and purification with metal chelate chromatography (Ni Chelateing Sepharose). And then removing modifier (6M urea) with dialysis and refolding of the enzyme spontaneously gave activated MMP-12.
(§1) The enzymatic activity on MMPs was analyzed by the method described in “C. Graham Knight, Frances Willenbrock and Gillian Murphy: A novel coumarin-labelled peptide for sensitive continuous assays of the matrix metalloproteinases: FEBS LETT., 296, (1992), 263-266”. The substrate: MOCAc-Pro-Leu-Gly-Leu-A2Pr(DNP)-Ala-Arg-NH2 was purchased from Peptide Institute, Inc., Osaka, Japan. The measurement of the inhibitory activities (IC50) was carried out by the following four methods;
(§2) (A) Reaction with substrate, enzyme (MMPs) and inhibitor
(§3) (B) Reaction with substrate and inhibitor, without enzyme
(§4) (C) Reaction with substrate and enzyme (MMPs), without inhibitor
(§5) (D) Reaction with substrate only
(§6) IC50 values were calculated by using the following formula and each fluorescence values of above four methods (A to D).
(§7) % inhibition={1−(A−B)/(C−D)}×100
(§8) IC50 means the concentration required to inhibit 50% of the enzyme activity.

In a further assay the target is T2, MMP-9 (Homo sapiens, UniProt P14780).
T2 construct: endogenous in cells; host or cells: HT1080 human fibrosarcoma cells, TPA-stimulated; purified in house from conditioned medium
Kind of assay: Assay for inhibitory activities on MMPs (fluorogenic peptide substrate): MMP-9. In kind it is biochemical. The note with it: substrate MOCAc-Pro-Leu-Gly-Leu-A2Pr(DNP)-Ala-Arg-NH2.
Source text: MMP-9 was isolated and purified by using a combination of procedures described in previous reports as follows. Yasunori Okada, Yukio Gonoji, Katsumi Naka, Katsuro Tomita, Isao Nakanishi, Kazushi Iwata, Kyoko Yamashita, and Taro Hayakawa: Matrix metalloproteinase 9 (92-kDa gelatinase/type IV collagenase) from HT1080 human fibrosarcoma cells. Purification and activation of the precursor and enzymic properties. J. Biol. Chem., 267 (1.992) 21712-21719. Yasunori Okada, Tatsuhisa Morodomi, Jan J, Enghild, Ko Suzuki, Atsushi Yasui, Isao Nakanishi, Guy Salvesen and Hideaki Nagase: Matrix metalloproteinase 2 from human rheumatoid synovial fibroblasts. Purification and activation of the precursor and enzymic properties. Eur. J. Biochem. 194 (1990) 721-730. Robin V Ward, Rosalind M Hembry, John J Reynolds and Gillian Murphy: The purification of tissue inhibitor of metalloproteinase-2 from its 72 kDa progelatinase complex. Biochem. J. 278 (1991) 179-187.
Briefly, human fibrosarcoma ATCC HT1080 cell line was cultured to confluent in Dulbecco's Modified Medium (DMEM) containing 10% fetal-calf serum at 37° C. for 48 hours. Subsequently, the medium of confluent culture was changed to serum-free DMEM medium. To obtain MMP-9, Phorbol-12-myristate-13-acetate (TPA) must be added to this serum-free DMEM medium at a concentration of 50 ng/ml. The TPA treated medium was centrifuged at 3000 rpm for 15 min and the supernatant was concentrated to 450 ml by a Toyo-Roshi UP-20 apparatus with an ultrafiltration membrane. Then, proMMP-9 in this concentrated solution was purified by using columns of Gelatin-Sepharose and Concanavalin A-Sepharose. The pool containing proMMP-9 was dialyzed, concentrated (Toyo-Roshi UP-20) and applied to columns of Sephacryl S-200 and Green A matrix for the separation from TIMPs. The obtained proMMP-9 fraction was activated by TPCK-Trypsin (final conc. […] reaction mix.).
as §1, §2, §3, §4, §5, §6, §7, §8

Assay [1] has as its system Sprague-Dawley male rats exposed to cigarette smoke. The assay can be described thus: Cigarette smoke exposure in rats, lung mechanics. In kind it is in vivo, rat. The note with it: 30 mg/kg p.o. twice daily. How it is done:
Sprague-Dawley male rats (390-430 g initial body weight) were exposed daily to smoke from commercial filtered cigarettes (30 cigarettes/rat/day, 5 days/week, for 7 to 8 weeks) with a smoke-generating and whole-body exposure system. The animals received 30 mg/kg p.o. twice daily of compound (B-6), which was suspended with 0.5% methyl cellulose. Vehicle animals received 2 ml/kg of 0.5% methyl cellulose. At 16-24 hr after the last exposure with cigarette smoke, anesthesia was induced with intraperitoneal injection of 40 mg/kg of pentobarbital sodium. Immediately after muscle relaxation with intravenous pancuronium bromide (0.3 mg/rat), animals were mechanically ventilated with a pressure-limited ventilator and were evaluated dynamic compliance. After exsanguination, the lung was attached to a glass syringe via a connector tube and continuously inflated through the airway to a transpulmonary pressure of 30 cmH2O, deflated them to a Ptp of 0 cmH2O, and aspirated them to a Ptp of −20 cmH2O. The change of Ptp and lung volume was monitored and recorded as the deflation pressure-volume (P-V) curve. Static lung compliance defined as the slope of steep portion of the deflation P-V curve was evaluated. Inspiratory capacity (IC) defined as the difference in lung volume between total lung capacity at a Ptp of 25 cmH2O and functional residual capacity at a Ptp of 0 cmH2O was evaluated.
Data are expressed as means ±S.D. Statistical analysis was performed with one-sided Student's t-test. A value of P<0.05 was considered significant.

The mark [2] stands for this setting: cigarette smoke exposure 7 to 8 weeks, means ± S.D., n = 7.

SMILES strings stand for the structures.

T1 sequence (P39900 100-263): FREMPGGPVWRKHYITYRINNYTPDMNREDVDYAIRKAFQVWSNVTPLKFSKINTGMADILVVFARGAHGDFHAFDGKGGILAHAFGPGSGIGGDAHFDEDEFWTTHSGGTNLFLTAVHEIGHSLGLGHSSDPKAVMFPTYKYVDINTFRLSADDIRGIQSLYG
T2 sequence (P14780 107-707 limits assumed): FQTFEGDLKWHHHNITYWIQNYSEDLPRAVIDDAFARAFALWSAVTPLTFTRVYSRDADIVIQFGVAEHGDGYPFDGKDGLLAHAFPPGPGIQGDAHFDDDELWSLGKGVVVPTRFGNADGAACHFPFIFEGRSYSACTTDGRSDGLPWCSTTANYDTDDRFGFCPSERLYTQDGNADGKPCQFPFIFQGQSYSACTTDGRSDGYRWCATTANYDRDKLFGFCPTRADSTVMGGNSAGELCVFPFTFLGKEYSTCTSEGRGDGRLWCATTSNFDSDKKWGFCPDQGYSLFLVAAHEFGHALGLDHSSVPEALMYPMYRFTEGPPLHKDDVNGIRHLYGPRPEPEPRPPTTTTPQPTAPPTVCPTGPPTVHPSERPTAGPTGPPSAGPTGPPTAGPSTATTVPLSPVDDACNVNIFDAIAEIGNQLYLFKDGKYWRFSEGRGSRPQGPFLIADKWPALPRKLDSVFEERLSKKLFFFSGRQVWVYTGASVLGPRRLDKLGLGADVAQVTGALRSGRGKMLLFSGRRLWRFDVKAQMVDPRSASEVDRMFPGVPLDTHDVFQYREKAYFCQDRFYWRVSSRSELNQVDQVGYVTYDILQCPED

Turning to `C[C@@H](NS(=O)(=O)c1ccc(C#Cc2ccc3ccccc3c2)s1)C(=O)O` [Compound B-6], the IC50 at MMP-12 catalytic domain was found to be 23 nM. For the same compound, the IC50 at MMP-9 is 840 nM. Besides, in assay [1], the “effect on increase of dynamic compliance by cigarette smoke exposure (in words)” value is “tended to attenuate the increase”, the “effect on increase of inspiratory capacity by cigarette smoke exposure (in words)” value is listed as “tended to attenuate the increase” and the “effect on increase of static lung compliance by cigarette smoke exposure (in words)” value is listed as “significantly reduced the increase”. In assay [1] (setting [2]), the Inspiratory capacity is 21.76 ± 1.85 mL/kg and the dynamic compliance worked out at 0.96 ± 0.17 ml/cmH2O/kg. Also, the Static lung compliance in assay [1] (cigarette smoke exposure 7 to 8 weeks, means ± S.D., n = 7, P < 0.05 vs. Cigarette smoke exposure) amounted to 2.05 ± 0.25 ml/cmH2O/kg.

One may read the IC50 as the concentration at which inhibition is half-maximal.

For the origin of these results see patent US6897237B2, “MMP-12 inhibitors” (Shionogi & Co. Ltd., priority 2000, dated 2005).
